≈ marks a conversion by molar mass, not a printed value. Calls of active or inactive are those of the source. The rule behind the calls is not given here.
Columns and labels:
Staphylococcus aureus [1] = experiment: microbe, parasite or virus in culture; assay type: functional; details: ATCC 33591
Description: Antibacterial activity against methicillin-resistant Staphylococcus aureus ATCC 33591 assessed as growth inhibition by CLSI broth microdilution method

Enterococcus faecalis [2] = experiment: Antibacterial activity against vancomycin-resistant Enterococcus faecalis ATCC 51575 assessed as growth inhibition by CLSI broth microdilution method; assay type: functional
Enterococcus faecalis [3] = experiment: microbe, parasite or virus in culture; assay type: functional; details: ATCC 19433
Description: Antibacterial activity against vancomycin-sensitive Enterococcus faecalis ATCC 19433 assessed as growth inhibition by CLSI broth microdilution method

Staphylococcus aureus [4] = experiment: Antibacterial activity against methicillin-sensitive Staphylococcus aureus 8325-4 assessed as growth inhibition by CLSI broth microdilution method; assay type: functional
[5] = target: Tubulin beta chain (Sus scrofa) (UniProt P02554); experiment: Stimulation of porcine MAP-rich beta-tubulin polymerization at 40 ug/mL by light scattering assay
Chain of Tubulin beta chain (Sus scrofa) (P02554 whole entry): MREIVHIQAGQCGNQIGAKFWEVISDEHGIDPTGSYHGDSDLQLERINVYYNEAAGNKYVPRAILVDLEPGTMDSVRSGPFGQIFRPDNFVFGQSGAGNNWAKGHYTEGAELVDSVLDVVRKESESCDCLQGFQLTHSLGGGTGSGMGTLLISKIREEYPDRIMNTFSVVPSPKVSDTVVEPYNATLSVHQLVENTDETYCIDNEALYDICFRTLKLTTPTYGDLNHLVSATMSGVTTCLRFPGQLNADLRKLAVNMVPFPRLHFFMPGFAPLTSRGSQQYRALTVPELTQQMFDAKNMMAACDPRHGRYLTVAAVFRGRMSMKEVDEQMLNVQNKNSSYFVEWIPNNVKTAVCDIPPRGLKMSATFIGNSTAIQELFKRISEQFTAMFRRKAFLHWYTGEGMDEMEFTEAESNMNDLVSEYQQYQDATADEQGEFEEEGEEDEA

[6] = target: T1, Cell division protein FtsZ (Staphylococcus aureus) (UniProt P0A031); experiment: Stimulation of Staphylococcus aureus ATCC 33591 FtsZ self-polymerization expressed in Escherichia coli BL21 (DE3) at 40 ug/mL by light scattering assay
T1 sequence (whole entry): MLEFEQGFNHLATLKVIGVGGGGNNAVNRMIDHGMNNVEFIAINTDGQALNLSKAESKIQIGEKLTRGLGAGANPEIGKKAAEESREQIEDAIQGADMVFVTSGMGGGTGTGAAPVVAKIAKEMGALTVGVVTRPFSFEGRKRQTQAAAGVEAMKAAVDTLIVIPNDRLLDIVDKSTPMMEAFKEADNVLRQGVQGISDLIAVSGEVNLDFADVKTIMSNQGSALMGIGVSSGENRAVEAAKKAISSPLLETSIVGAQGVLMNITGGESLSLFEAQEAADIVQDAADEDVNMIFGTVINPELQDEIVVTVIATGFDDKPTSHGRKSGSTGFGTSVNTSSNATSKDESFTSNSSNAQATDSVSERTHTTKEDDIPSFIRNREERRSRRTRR

[7] = target: Tubulin beta chain (Sus scrofa) (UniProt P02554); experiment: Inhibition of porcine MAP-rich beta-tubulin polymerization at 10 ug/mL by light scattering assay

| Compound | MIC90 (Staphylococcus aureus [1]) | MIC90 (Enterococcus faecalis [2]) | MIC90 (Enterococcus faecalis [3]) | MIC90 (Staphylococcus aureus [4]) | Activity [5] | Activity [6] | inhibition [7] |
| --- | --- | --- | --- | --- | --- | --- | --- |
| CC(C)(C)c1ccc(-c2cccc3cc(-c4ccccc4N)ccc23)cc1 | > 64 µg/mL | > 64 µg/mL | > 64 µg/mL | > 64 µg/mL | – | – | – |
| NCc1cccc(-c2ccc3c(-c4cccc(-c5ccccc5)c4)cccc3c2)c1 | 4 µg/mL (≈ 10.4 µM) | 8 µg/mL (≈ 20.8 µM) | 4 µg/mL (≈ 10.4 µM) | 2 µg/mL (≈ 5.19 µM) | – | – | – |
| CC(C)(C)c1ccc(-c2cccc3cc(-c4ccccc4C[N+](C)(C)C)ccc23)cc1.[I-] | 0.5 µg/mL | 4 µg/mL | 4 µg/mL | 0.5 µg/mL | inactive | Active | – |
| C[n+]1cc2c3c(ccc2c2ccc4cc5c(cc4c21)OCO5)OCO3 [SANGUINARIUM] | 2 µg/mL | 16 µg/mL | 8 µg/mL | 2 µg/mL | – | – | – |
| C[N+](C)(C)c1ccc(-c2ccc3c(-c4ccc(F)cc4)cccc3c2)cc1.[I-] | 4 µg/mL | 4 µg/mL | 4 µg/mL | 4 µg/mL | – | – | – |
| CN(C)[C@@H]1C(O)=C(C(N)=O)C(=O)[C@@]2(O)C(O)=C3C(=O)c4c(O)cccc4[C@@](C)(O)[C@H]3C[C@@H]12 [TETRACYCLINE] | 64 µg/mL (≈ 144 µM) | > 64 µg/mL | 0.5 µg/mL (≈ 1.13 µM) | 0.063 µg/mL (≈ 0.142 µM) | – | – | – |
| CC(C)(C)c1ccc(-c2cccc3cc(-c4cccc([N+](C)(C)C)c4)ccc23)cc1.[I-] | 1 µg/mL | 2 µg/mL | 2 µg/mL | 0.5 µg/mL | – | – | – |
| C[N+](C)(C)c1ccc(-c2ccc3c(-c4cccc(-c5ccccc5)c4)cccc3c2)cc1.[I-] | 1 µg/mL | 2 µg/mL | 2 µg/mL | 1 µg/mL | – | – | – |
| C[N+](C)(C)Cc1cccc(-c2ccc3c(-c4cccc(-c5ccccc5)c4)cccc3c2)c1.[I-] | 1 µg/mL | 4 µg/mL | 4 µg/mL | 0.5 µg/mL | – | – | – |
| COC(=O)c1ccc(-c2ccc3c(-c4ccc(C(C)(C)C)cc4)cccc3c2)c(C[N+](C)(C)C)c1.[I-] | 2 µg/mL | 8 µg/mL | 4 µg/mL | 1 µg/mL | – | – | – |
| CC(C)(C)c1ccc(-c2cccc3cc(-c4cccc(N)c4)ccc23)cc1 | > 64 µg/mL | > 64 µg/mL | > 64 µg/mL | > 64 µg/mL | – | – | – |
| CC[C@H]1OC(=O)[C@H](C)[C@@H](O[C@H]2C[C@@](C)(OC)[C@@H](O)[C@H](C)O2)[C@H](C)[C@@H](O[C@@H]2O[C@H](C)C[C@H](N(C)C)[C@H]2O)[C@](C)(O)C[C@@H](C)C(=O)[C@H](C)[C@@H](O)[C@]1(C)O [ERYTHROMYCIN] | > 64 µg/mL | > 64 µg/mL | 1 µg/mL (≈ 1.36 µM) | 0.13 µg/mL (≈ 0.177 µM) | – | – | – |
| CC(C)(C)c1ccc(-c2cccc3cc(-c4ccc([N+](C)(C)C)cc4)ccc23)cc1.[I-] | 2 µg/mL | 4 µg/mL | 4 µg/mL | 1 µg/mL | – | – | – |
| COC(=O)c1ccc(-c2ccc3c(-c4ccc(C(C)(C)C)cc4)cccc3c2)c(CN=C(N)N)c1 | 1 µg/mL (≈ 2.15 µM) | 4 µg/mL (≈ 8.59 µM) | 2 µg/mL (≈ 4.3 µM) | 1 µg/mL (≈ 2.15 µM) | – | – | – |
| COC(=O)c1ccc(-c2ccc3c(-c4ccc(C(C)(C)C)cc4)cccc3c2)c(CN)c1 | 2 µg/mL (≈ 4.72 µM) | 16 µg/mL (≈ 37.8 µM) | 16 µg/mL (≈ 37.8 µM) | 2 µg/mL (≈ 4.72 µM) | – | – | – |
| CN[C@H](CC(C)C)C(=O)N[C@H]1C(=O)N[C@@H](CC(N)=O)C(=O)N[C@H]2C(=O)N[C@H]3C(=O)N[C@H](C(=O)N[C@H](C(=O)O)c4cc(O)cc(O)c4-c4cc3ccc4O)[C@H](O)c3ccc(c(Cl)c3)Oc3cc2cc(c3O[C@@H]2O[C@H](CO)[C@@H](O)[C@H](O)[C@H]2O[C@H]2C[C@](C)(N)[C@H](O)[C@H](C)O2)Oc2ccc(cc2Cl)[C@H]1O [VANCOMYCIN] | 2 µg/mL (≈ 1.38 µM) | > 64 µg/mL | 1 µg/mL (≈ 0.69 µM) | 1 µg/mL (≈ 0.69 µM) | – | inactive | – |
| C[N+](C)(C)c1cccc(-c2ccc3c(-c4ccc(F)cc4)cccc3c2)c1.[I-] | 4 µg/mL | 8 µg/mL | 8 µg/mL | 1 µg/mL | – | – | – |

| Compound | MIC90 (Staphylococcus aureus [1]) | MIC90 (Enterococcus faecalis [2]) | MIC90 (Enterococcus faecalis [3]) | MIC90 (Staphylococcus aureus [4]) | Activity [5] | Activity [6] | inhibition [7] |
| --- | --- | --- | --- | --- | --- | --- | --- |
| COc1ccc2c(c[n+](C)c3c4cc5c(cc4ccc23)OCO5)c1OC [CHELERYTHRINE] | 4 µg/mL | 32 µg/mL | 32 µg/mL | 4 µg/mL | – | – | – |
| Cc1ccccc1-c1ccc2c(-c3ccc(C(C)(C)C)cc3)cccc2c1 | > 64 µg/mL | > 64 µg/mL | > 64 µg/mL | > 64 µg/mL | – | – | – |
| COC(=O)c1ccc(-c2ccc3c(-c4ccc(C(C)(C)C)cc4)cccc3c2)c(CN(C)C)c1 | > 64 µg/mL | > 64 µg/mL | > 64 µg/mL | > 64 µg/mL | – | – | – |
| CN(C)Cc1cccc(-c2ccc3c(-c4cccc(-c5ccccc5)c4)cccc3c2)c1 | 8 µg/mL (≈ 19.3 µM) | 16 µg/mL (≈ 38.7 µM) | 16 µg/mL (≈ 38.7 µM) | 4 µg/mL (≈ 9.67 µM) | – | – | – |
| CNCc1ccccc1-c1ccc2c(-c3ccc(C(C)(C)C)cc3)cccc2c1 | 2 µg/mL (≈ 5.27 µM) | 2 µg/mL (≈ 5.27 µM) | 2 µg/mL (≈ 5.27 µM) | 2 µg/mL (≈ 5.27 µM) | – | – | – |
| CC(C)(C)c1ccc(-c2cccc3cc(-c4ccccc4CN=C(N)N)ccc23)cc1 | 1 µg/mL (≈ 2.45 µM) | 2 µg/mL (≈ 4.91 µM) | 2 µg/mL (≈ 4.91 µM) | 1 µg/mL (≈ 2.45 µM) | – | – | – |
| C[N+](C)(C)c1cccc(-c2ccc3c(-c4ccc(C(F)(F)F)cc4)cccc3c2)c1.[I-] | 4 µg/mL | 8 µg/mL | 8 µg/mL | 1 µg/mL | – | – | – |
| CC(C)(C)c1ccc(-c2cccc3cc(-c4ccccc4CCN)ccc23)cc1 | 2 µg/mL (≈ 5.27 µM) | 4 µg/mL (≈ 10.5 µM) | 4 µg/mL (≈ 10.5 µM) | 2 µg/mL (≈ 5.27 µM) | – | Active | – |
| Cc1onc(-c2ccccc2)c1C(=O)N[C@@H]1C(=O)N2[C@@H]1SC(C)(C)[C@@H]2C(=O)O [OXACILLIN] | > 64 µg/mL | > 64 µg/mL | 8 µg/mL (≈ 19.9 µM) | 0.063 µg/mL (≈ 0.157 µM) | – | – | – |
| CNCc1cc(C(=O)OC)ccc1-c1ccc2c(-c3ccc(C(C)(C)C)cc3)cccc2c1 | 4 µg/mL (≈ 9.14 µM) | 4 µg/mL (≈ 9.14 µM) | 8 µg/mL (≈ 18.3 µM) | 4 µg/mL (≈ 9.14 µM) | – | – | – |
| CC(C)(C)c1ccc(-c2cccc3cc(-c4ccc(C(=O)O)cc4CN)ccc23)cc1 | > 64 µg/mL | > 64 µg/mL | > 64 µg/mL | > 64 µg/mL | – | – | – |
| CN(C)Cc1ccccc1-c1ccc2c(-c3ccc(C(C)(C)C)cc3)cccc2c1 | > 64 µg/mL | > 64 µg/mL | > 64 µg/mL | 32 µg/mL (≈ 81.3 µM) | – | – | – |
| C[N+](C)(C)c1cccc(-c2ccc3c(-c4ccc(-c5ccccc5)cc4)cccc3c2)c1.[I-] | 1 µg/mL | 4 µg/mL | 2 µg/mL | 0.5 µg/mL | – | – | – |
| COC(=O)Nc1nc2cc(C(=O)c3cccs3)ccc2[nH]1 | – | – | – | – | – | – | Active |
| C[N+](C)(C)c1ccc(-c2ccc3c(-c4ccc(-c5ccccc5)cc4)cccc3c2)cc1.[I-] | 1 µg/mL | 2 µg/mL | 2 µg/mL | 1 µg/mL | – | – | – |
| CCC[C@@H]1C[C@@H](C(=O)N[C@@H]([C@H]2O[C@H](SC)[C@H](O)[C@@H](O)[C@H]2O)[C@H](C)Cl)N(C)C1 [CLINDAMYCIN] | > 64 µg/mL | > 64 µg/mL | 2 µg/mL (≈ 4.71 µM) | 0.031 µg/mL (≈ 0.0729 µM) | – | – | – |
| C[N+](C)(C)c1cccc(-c2ccc3c(-c4cccc(-c5ccccc5)c4)cccc3c2)c1.[I-] | 1 µg/mL | 2 µg/mL | 2 µg/mL | 1 µg/mL | – | – | – |

— ChEMBL document CHEMBL2346578, “Substituted 1,6-diphenylnaphthalenes as FtsZ-targeting antibacterial agents” (2013)
